Here are results for 14 molecules from patent US20250084036A1, “COMPOUND, ALDEHYDE DEHYDROGENASE 2 ACTIVATOR, PHARMACEUTICAL COMPOSITION, AND THERAPEUTIC AND/OR PROPHYLACTIC DRUG” (Alchemedicine, Inc., priority 2022, published 2025).

In data set [1] the target is T1, human recombinant ALDH2 enzyme (Homo sapiens, UniProt P05091).
T1 construct: purchased Abcam ab87415
T1 sequence (P05091 18-517): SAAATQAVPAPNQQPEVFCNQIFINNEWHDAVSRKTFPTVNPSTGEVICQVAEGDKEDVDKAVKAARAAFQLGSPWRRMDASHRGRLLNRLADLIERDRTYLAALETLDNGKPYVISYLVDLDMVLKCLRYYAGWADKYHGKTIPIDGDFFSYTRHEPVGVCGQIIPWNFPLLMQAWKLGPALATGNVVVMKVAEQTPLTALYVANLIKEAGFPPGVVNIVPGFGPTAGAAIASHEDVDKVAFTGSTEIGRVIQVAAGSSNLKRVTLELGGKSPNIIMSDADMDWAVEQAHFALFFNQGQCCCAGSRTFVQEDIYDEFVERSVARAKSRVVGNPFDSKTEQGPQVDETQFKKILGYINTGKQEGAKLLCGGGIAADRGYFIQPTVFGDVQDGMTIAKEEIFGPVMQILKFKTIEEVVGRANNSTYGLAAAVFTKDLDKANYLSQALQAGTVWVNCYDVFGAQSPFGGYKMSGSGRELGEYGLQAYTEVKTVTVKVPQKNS
The data set can be described thus: Test Example 1-2: ALDH2 activation effect (acetaldehyde oxidation rate, PicoProbe kit). Type of data set: biochemical. To be noted: ALDH2 1 μg/mL, 60 min measurement. How it is done:
(§1) The activation effect of each test compound on the acetaldehyde oxidation rate of ALDH2 was measured with the following method. A test was conducted by using a commercially available PicoProbe™ Aldehyde dehydrogenase Activity Assay Kit (manufactured by Abcam) with reference to an instruction attached to the product under the following conditions. To each well of a 384-well plate, the following (1) to (3) were sequentially added with a pipette: • (1) 10 μL of solution obtained by dissolving and diluting a human recombinant ALDH2 enzyme (manufactured by Abcam, product number: ab87415) with ALDH assay Buffer (final concentration: 1 μg/mL); • (2) 10 μL of 30 μM or 90 μM test compound solution (with 3% DMSO) prepared by using ALDH assay Buffer; and • (3) 10 μL of Reaction mix composed with ratio of 7.3 μL of ALDH assay Buffer, 0.6 μL of PicoProbe, 0.6 μL of Substrate Mix, and 1.5 μL of Acetaldehyde.
Before addition of (3), incubation was performed at room temperature for 5 minutes. After addition of (3), fluorescence intensity was measured at room temperature every 2.5 minutes over a period of 60 minutes by using an EnVision (manufactured by PerkinElmer Inc.) to determine the oxidation rate. Wavelengths of 535 nm and 587 nm were used for fluorescence intensities of excitation and emission, respectively.

Data set [2] can be described thus: Test Example 2: Metabolic stability with mouse hepatic microsomes. Further: tested at 0.99 µM. Type of data set: in vitro ADME. To be noted: after 30 minutes, 37° C., NADPH. How it is done: Metabolic stability in mouse hepatic microsomes was evaluated with the following method.
• (1) Mouse hepatic microsomes: 20 mg/mL • (2) Test compound: 1.1 mM DMSO solution • (3) Potassium phosphate buffer solution: 66.7 mM (pH 7.4) • (4) NADPH solution: 10 mM in potassium phosphate buffer solution • (5) Quenching solution: 0.5% formic acid-acetonitrile solution with warfarin as internal standard substance
Into a propylene tube, 971.5 μL of the potassium phosphate buffer solution and 27.5 μL of the mouse hepatic microsomes were put, and suspended. Thereto, 1 μL of a test compound was added, and 180 μL was taken from this mixture and transferred into another tube. The mixture was preincubated at 37° C. for 5 minutes, and 20 μL of the NADPH solution (for the case with an incubation time of 30 minutes) or 20 μL of the potassium phosphate buffer solution (for the case with an incubation time of 0 minutes) was then added thereto. After incubation, 200 μL of the quenching solution was added to terminate the reaction. Subsequently, centrifugation was performed at 3220×g for 20 minutes, and the concentration of the unchanged form of the test compound in 200 μL of the supernatant was measured with LC-MS/MS. On the basis of the peak area obtained for the unchanged form, the residual rate (%) of the unchanged form was calculated as that for the case with an incubation time of 0 minutes was assumed as 100%.

Data set [3] is described as follows: Test Example 3: Metabolic stability with human hepatic microsomes. To be noted: human hepatic microsomes 0.1 mg protein/mL, 0.1 μmol/L test compound, after 30 minutes, 37° C. Type of data set: in vitro ADME. How it is done:
For the compounds of Examples 1 to 9, which had been confirmed to have stability in the mouse hepatic microsome test, metabolic stability with human hepatic microsomes was measured. The specific method is as follows. • (1) Fifty microliter-portions were taken from 0.2 μmol/L test compound diluted with β-NADPH solution. • (2) Fifty microliters of 0.2 mg protein/mL human hepatic microsome solution was added to each (except for a sample with a reaction time of 0 minutes). • (3) Incubation was performed with shaking at 37° C. for 30 minutes (concentration in reaction sample: 0.1 μmol/L test compound, 0.1 mg protein/mL human hepatic microsome) • (4) After incubation, 400 μL of methanol was added to terminate the reaction. • (5) To the sample with a reaction time of 0 minutes, 50 μL of 0.2 mg protein/mL hepatic microsome solution was added. • (6) Each of the samples from (4) and (5) was left to stand at −20° C. for 30 minutes or longer, and then centrifuged at 4° C. and 3,000 rpm for approximately 10 minutes. • (7) The supernatant was subjected to measurement with LC/MS/MS, and, on the basis of the peak area obtained for the unchanged form, the residual rate (%) of the unchanged form was calculated as that for the case with an incubation time of 0 minutes was assumed as 100%.

In data set [4] the target is T1, human recombinant ALDH2 enzyme. The data set can be described thus: Test Example 1-1: ALDH2 activation effect (acetaldehyde oxidation rate, PicoProbe kit). It counts as biochemical. To be noted: ALDH2 2 μg/mL, 180 min measurement. How it is done:
as §1, with “by BioVision Inc.)” for “by Abcam)”, “concentration: 2” for “concentration: 1”, “of […]” for “of 7.3”, “PicoProbe, 0.3” for “PicoProbe, 0.6”
Before addition of (3), incubation was performed at room temperature for 5 minutes. After addition of (3), fluorescence intensity was measured at room temperature every 2.5 minutes over a period of 180 minutes by using an EnSight (manufactured by PerkinElmer Inc.) to determine the oxidation rate. Wavelengths of 535 nm and 587 nm were used for fluorescence intensities of excitation and emission, respectively.

With `COc1ncc(CNC(=O)c2cc(-c3ncccc3[C@@H](C)O)ccc2F)cc1F` (single isomer, unassigned) [Example 4, 2-fluoro-N-((5-fluoro-6-methoxypyridin-3-yl)methyl)-5-(3-(1-hydroxyethyl)pyridin-2-yl)benzamide], the “acetaldehyde oxidation rate (no test compound = 100%)” value in data set [1] (test compound 10 μM) came to 133%; in data set [1] (test compound 30 μM), 155%. Further, the “Residual rate (%) of unchanged form” value in data set [2] is recorded as 93%; in data set [3] it was more than 99%.

With `COc1ncc(CNC(=O)c2cc(-c3ncccc3[C@@H](C)O)ccc2F)cc1F` (single isomer, unassigned) [Example 5, 2-fluoro-N-((5-fluoro-6-methoxypyridin-3-yl)methyl)-5-(3-(1-hydroxyethyl)pyridin-2-yl)benzamide], the “acetaldehyde oxidation rate (no test compound = 100%)” value in data set [1] (test compound 10 μM) was determined as 122%; in data set [1] (test compound 30 μM), 170%. The “Residual rate (%) of unchanged form” value in data set [2] was 95%; in data set [3], 92%.

With `O=C(NCc1ccc2c(c1)OCO2)c1c(Cl)cccc1Cl` [Comparative Example 1, reference compound], the “acetaldehyde oxidation rate (no test compound = 100%)” value is 199% in data set [4] (test compound 10 μM), 225% in data set [4] (test compound 30 μM), 220% in data set [1] (test compound 10 μM) and 275% in data set [1] (test compound 30 μM). Moreover, the “Residual rate (%) of unchanged form” value in data set [2] is recorded as less than 1%.

Consider `COc1ccc(CNC(=O)c2cc(-c3ncccc3CO)ccc2OCC2CC2)cc1F` [Comparative Example 2, reference compound], for which the “Residual rate (%) of unchanged form” value in data set [2] amounted to 6%.

For the molecule `COCc1ccc(CNC(=O)c2c(Cl)cccc2Cl)cc1F` [Comparative Example 3, reference compound], the “Residual rate (%) of unchanged form” value in data set [2] stood at 1%.

Consider `COCc1ccc(CNC(=O)c2c(Cl)cccc2Br)cc1F` [Comparative Example 4, reference compound], for which the “Residual rate (%) of unchanged form” value in data set [2] is reported as less than 1%.

For the molecule `COCc1ccc(CNC(=O)c2c(F)cccc2Cl)cc1F` [Comparative Example 5, reference compound], the “Residual rate (%) of unchanged form” value in data set [2] is listed as less than 1%.

As to `COCc1ccc(CNC(=O)c2c(F)cccc2F)cc1F` [Comparative Example 6, reference compound], the “Residual rate (%) of unchanged form” value in data set [2] stood at 1%.

Consider `COCc1ccc(CNC(=O)c2cc(-c3ncccc3CO)ccc2F)cn1` [Example 1, 2-Fluoro-5-(3-(hydroxymethyl)pyridin-2-yl)-N-((6-(methoxymethyl)pyridin-3-yl)methyl)benzamide], for which the “acetaldehyde oxidation rate (no test compound = 100%)” value was 123% in data set [4] (test compound 10 μM) and 130% in data set [4] (test compound 30 μM). Also, the “Residual rate (%) of unchanged form” value turned out to be 91% in data set [2] and 96% in data set [3].

Take `COc1ccc(CNC(=O)c2cc(-c3ncccc3CO)ccc2F)cn1` [Example 2, 2-Fluoro-5-(3-(hydroxymethyl)pyridin-2-yl)-N-((6-methoxypyridin-3-yl)methyl)benzamide]: the “acetaldehyde oxidation rate (no test compound = 100%)” value in data set [4] (test compound 10 μM) was found to be 150%; in data set [4] (test compound 30 μM), 180%. The “Residual rate (%) of unchanged form” value in data set [2] is recorded as 89%; in data set [3] it was more than 99%.

Take `O=C(NCc1ccc(OC(F)F)nc1)c1cc(-c2ncccc2CO)ccc1F` [Example 6, N-((6-(Difluoromethoxy)pyridin-3-yl)methyl)-2-fluoro-5-(3-(hydroxymethyl)pyridin-2-yl)benzamide]: the entries for the “acetaldehyde oxidation rate (no test compound = 100%)” value in data set [1] (test compound 10 μM) and in data set [1] (test compound 30 μM) were 125% and 139%, respectively. For the same molecule, the “Residual rate (%) of unchanged form” value in data set [2] is more than 99%; in data set [3] it was 47%.

Consider `CCOc1ncc(CNC(=O)c2cc(-c3ncccc3CO)ccc2F)cc1F` [Example 7, N-((6-Ethoxy-5-fluoropyridin-3-yl)methyl)-2-fluoro-5-(3-(hydroxymethyl)pyridin-2-yl)benzamide], for which the “acetaldehyde oxidation rate (no test compound = 100%)” value in data set [1] (test compound 10 μM) was 331%; in data set [1] (test compound 30 μM), 415%. For the same molecule, the “Residual rate (%) of unchanged form” value in data set [2] came to 96%; in data set [3], 89%.

Regarding `CC(C)Oc1ncc(CNC(=O)c2cc(-c3ncccc3CO)ccc2F)cc1F` [Example 8, 2-Fluoro-N-((5-fluoro-6-isopropoxypyridin-3-yl)methyl)-5-(3-(hydroxymethyl)pyridin-2-yl)benzamide], the results for the “acetaldehyde oxidation rate (no test compound = 100%)” value in data set [1] (test compound 10 μM) and in data set [1] (test compound 30 μM) were 154% and 224%, respectively. Also, the results for the “Residual rate (%) of unchanged form” value in data set [2] and in data set [3] were 90% and more than 99%, respectively.

As to `O=C(NCc1cnc(OC2CC2)c(F)c1)c1cc(-c2ncccc2CO)ccc1F` [Example 9, N-((6-Cyclopropoxy-5-fluoropyridin-3-yl)methyl)-2-fluoro-5-(3-(hydroxymethyl)pyridin-2-yl)benzamide], the “acetaldehyde oxidation rate (no test compound = 100%)” value in data set [1] (test compound 10 μM) came to 182%; in data set [1] (test compound 30 μM) it was 283%. Moreover, the “Residual rate (%) of unchanged form” value in data set [2] was found to be 92%; in data set [3], 93%.
